Source: publication PMC7254866 (ACS chemical biology, 2019)

What was measured:
[1] = molecular target: (UniProt D5GU71); assay: Inhibition of H11G11 GUS; assay type: biochemical, uncultured taxon
[2] = molecular target: Rh2GUS (Roseburia hominis, UniProt A0A395V8I7); assay: Inhibition of Rh2GUS; assay type: biochemical
[3] = molecular target: FpL2-6 (Faecalibacterium prausnitzii, UniProt D4K3H3); assay: Inhibition of FpL2-6 GUS; assay type: biochemical
[4] = system: FpL2-6, H11G11, Rg3, and Rh2 GUS enzymes; assay: Catalytic efficiency across the four regorafenib-glucuronide processing enzymes; assay type: biochemical; conditions: 4-MUG versus regorafenib-glucuronide
[5] = system: G380M variant of FpL2-6; assay: Regorafenib-glucuronide processing by G380M variant of FpL2-6; assay type: biochemical, Faecalibacterium prausnitzii
[6] = system: gut microbial GUS enzymes in mouse fecal samples; assay type: in vitro ADME, mice (C57BL/6 and BALB/c)
[7] = system: intestinal homogenate lysates (cecum, small intestine, large intestine); assay: Regorafenib-glucuronide conversion in intestinal homogenates of SPF mice; assay type: in vitro ADME, C57BL/6J mice
[8] = system: gut microbial GUS enzymes in human feces; assay type: in vitro ADME
[9] = system: cecum and cecal contents of germ-free mice; assay: Regorafenib-glucuronide conversion in ceca of germ-free mice; assay type: in vitro ADME, germ-free C57BL/6J mice; conditions: cecum and cecal contents of 5 GF mice, 48 h incubation

(UniProt D5GU71), sequence (D5GU71 1-754): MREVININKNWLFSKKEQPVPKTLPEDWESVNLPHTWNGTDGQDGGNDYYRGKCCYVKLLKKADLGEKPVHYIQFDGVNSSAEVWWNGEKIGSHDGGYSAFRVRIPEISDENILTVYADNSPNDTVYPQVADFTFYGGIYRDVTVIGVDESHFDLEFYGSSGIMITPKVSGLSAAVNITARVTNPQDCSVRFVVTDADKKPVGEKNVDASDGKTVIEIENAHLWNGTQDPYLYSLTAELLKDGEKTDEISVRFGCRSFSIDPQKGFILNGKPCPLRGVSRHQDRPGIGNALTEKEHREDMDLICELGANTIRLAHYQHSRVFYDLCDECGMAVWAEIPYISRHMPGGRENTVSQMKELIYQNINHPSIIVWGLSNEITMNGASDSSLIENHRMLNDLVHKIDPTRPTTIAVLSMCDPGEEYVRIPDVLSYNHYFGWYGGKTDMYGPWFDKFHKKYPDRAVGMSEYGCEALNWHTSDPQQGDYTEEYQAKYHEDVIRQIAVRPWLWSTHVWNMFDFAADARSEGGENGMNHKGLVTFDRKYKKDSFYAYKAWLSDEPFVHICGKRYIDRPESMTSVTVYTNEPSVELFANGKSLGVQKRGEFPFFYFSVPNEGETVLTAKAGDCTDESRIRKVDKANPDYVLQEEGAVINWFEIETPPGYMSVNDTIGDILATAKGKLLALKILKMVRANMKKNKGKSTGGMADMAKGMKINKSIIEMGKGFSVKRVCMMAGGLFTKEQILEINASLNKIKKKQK

Molecule: O=C(c1ccc(OCCN2CCCCC2)cc1)c1c(-c2ccc(O)cc2)sc2cc(O)ccc12 [raloxifene]
- IC50 [1]: 100 ± 5 µM
- IC50 [2]: 13 ± 3 µM
- IC50 [3]: 78 ± 9 µM

Molecule: Cc1c(-c2ccc(O)cc2)n(Cc2ccc(OCCN3CCCCCC3)cc2)c2ccc(O)cc12 [bazedoxifene]
- potency (in words) ([2]; toward Rh2GUS): low micromolar

Molecule: Cc1cc(=O)oc2cc(O[C@@H]3O[C@H](C(=O)O)[C@@H](O)[C@H](O)[C@H]3O)ccc12 [4-MUG, 4-methylumbelliferyl glucuronide]
- rate relative to rates with regorafenib-glucuronide [4]: 10–100 times faster

Molecule: regorafenib-glucuronide
- increase in catalytic efficiency ([5]; G380M variant versus FpL2-6 wild type): 40 fold
- catalytic efficiency ([5]; substrate regorafenib-glucuronide, G380M variant of FpL2-6): 4560 s⁻¹ M⁻¹
- conversion of regorafenib-glucuronide to regorafenib [6]: no conversion
- regorafenib-glucuronide converted to regorafenib ([7]; cecal extracts of SPF mice, 48 h): almost all
- conversion of regorafenib-glucuronide to regorafenib ([7]; small and large intestine homogenates, after 48 h): relatively little conversion
- regorafenib-glucuronide reactivation [8]: no regorafenib-glucuronide reactivation
- reactivation of regorafenib from regorafenib-glucuronide [9]: neither the cecum nor its contents were able to catalyze the reactivation
